# Reference: paper PMC3112382, “Crystal structures of a halophilic archaeal malate synthase from Haloferax volcanii and comparisons with isoforms A and G” (BMC Structural Biology, 2011)
# Legend:
# [1] = target: T1, H. volcanii malate synthase isoform H (hvMSH) (Haloferax volcanii, UniProt D4GTL2); assay: X-ray crystal structure, […] Å; format: binding; conditions: ~0.1 M glyoxylate and ~0.1 M MgCl2 soak; active site, on Mg2+; second, weak glyoxylate at acetyl-CoA thioester position; low-occupancy complex (3 mM glyoxylate) is 3PUG
# T1 construct: gene aceB; full-length native enzyme, purified from H. volcanii grown on acetate, no tag; trimer/hexamer equilibrium
# T1 sequence (D4GTL2 1-433): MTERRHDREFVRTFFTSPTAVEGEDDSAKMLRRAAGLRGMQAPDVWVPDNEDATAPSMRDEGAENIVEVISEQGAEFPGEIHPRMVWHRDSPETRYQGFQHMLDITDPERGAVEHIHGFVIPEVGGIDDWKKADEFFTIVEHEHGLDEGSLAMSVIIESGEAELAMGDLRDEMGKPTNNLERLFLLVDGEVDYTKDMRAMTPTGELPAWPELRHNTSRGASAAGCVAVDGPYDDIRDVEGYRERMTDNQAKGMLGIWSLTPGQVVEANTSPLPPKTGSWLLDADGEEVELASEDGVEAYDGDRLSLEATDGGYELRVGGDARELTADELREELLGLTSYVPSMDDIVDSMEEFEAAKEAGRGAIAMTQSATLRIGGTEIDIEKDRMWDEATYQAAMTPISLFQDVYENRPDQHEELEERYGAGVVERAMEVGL
# [2] = target: T1, H. volcanii malate synthase isoform H (hvMSH); assay: X-ray crystal structure, […] Å; format: binding; conditions: ~0.15 M acetyl-CoA, ~70 mM pyruvate, 50 mM MgCl2 soak, active site
compound,measurement,setting,value
O=CC(=O)O [glyoxylate],"X-ray crystal structure, 2.51 Å",[1],One glyoxylate molecule is bound to the Mg2+ at the active site
CC(=O)SCCNC(=O)CCNC(=O)[C@H](O)C(C)(C)COP(=O)(O)OP(=O)(O)OC[C@H]1O[C@@H](n2cnc3c(N)ncnc32)[C@H](O)[C@@H]1OP(=O)(O)O [acetyl-coenzyme A],"X-ray crystal structure, 1.95 Å",[2]; ternary complex with pyruvate,"one molecule of pyruvate, one molecule of acetyl-CoA, one magnesium ion"
CC(=O)C(=O)O [pyruvate],"X-ray crystal structure, 1.95 Å","[2]; ternary complex with acetyl-CoA, glyoxylate position","one molecule of pyruvate, one molecule of acetyl-CoA, one magnesium ion"
